Results taken from patent publication US20250230193A1, “CYCLIC COMPOUND HAVING SELECTIVE KRAS INHIBITORY EFFECT ON HRAS AND NRAS” (CHUGAI SEIYAKU KABUSHIKI KAISHA, priority 2022, published 2025).
*1 amine or outer side, *2 acyl side, *3 side chain or, on linkers, in order; H or OH if unused. Where a SMILES comes first, the peptide text is derived from it. Bridges are numbered along the chain shown (N, C = ends). [ ]: non-standard residue; d: D form. The star is where a group is joined. hPhe(3-Cl-4-CF3) = N[C@@H](CCc1ccc(C(F)(F)F)c(Cl)c1)C(=O)O; NPrPhe(4-CF3) = CCCN[C@@H](Cc1ccc(C(F)(F)F)cc1)C(=O)O; NPrAsp = CCCN([C@@H](CC(=O)[*:3])C(=O)[*:2])[*:1]; NEtAsp = CCN([C@@H](CC(=O)[*:3])C(=O)[*:2])[*:1]; X30 = CCN([C@H](C(=O)[*:2])C1CCCC1)[*:1]; NMeGly(cPent) = CN[C@H](C(=O)O)C1CCCC1; NMeNva(3-Et) = CCC(CC)[C@H](NC)C(=O)O; NMeD = CN[C@@H](CC(=O)O)C(=O)O; NMeL = CN[C@@H](CC(C)C)C(=O)O; NMeNva = CCC[C@H](NC)C(=O)O; Morpholide = C1CN(*)CCO1; NMeA = CN[C@@H](C)C(=O)O; Aze = O=C(O)[C@@H]1CCN1; Ac4c = NC1(C(=O)O)CCC1; NPrGly = CCCNCC(=O)O; NEtG = CCNCC(=O)O; Sar = CNCC(=O)O

How the values were obtained:
[1] = target: GDP-bound HRAS wild-type protein (Homo sapiens, UniProt P01112); test: Binding to HRAS by surface plasmon resonance (SPR), Single Cycle Kinetics; details: KD ratio, GDP-bound HRAS wild-type vs GDP-bound KRAS wild-type, SPR
Chain of GDP-bound HRAS wild-type protein (P01112 whole entry): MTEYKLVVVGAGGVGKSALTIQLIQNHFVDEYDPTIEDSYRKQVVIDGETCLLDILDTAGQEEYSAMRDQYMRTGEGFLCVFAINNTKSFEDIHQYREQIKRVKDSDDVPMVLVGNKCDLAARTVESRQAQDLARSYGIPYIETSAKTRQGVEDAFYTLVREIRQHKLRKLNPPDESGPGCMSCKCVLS

[2] = target: GDP-bound NRAS wild-type protein (Homo sapiens, UniProt P01111); test: Binding to NRAS by surface plasmon resonance (SPR), Single Cycle Kinetics; details: KD ratio, GDP-bound NRAS wild-type vs GDP-bound KRAS wild-type, SPR
Chain of GDP-bound NRAS wild-type protein (P01111 whole entry): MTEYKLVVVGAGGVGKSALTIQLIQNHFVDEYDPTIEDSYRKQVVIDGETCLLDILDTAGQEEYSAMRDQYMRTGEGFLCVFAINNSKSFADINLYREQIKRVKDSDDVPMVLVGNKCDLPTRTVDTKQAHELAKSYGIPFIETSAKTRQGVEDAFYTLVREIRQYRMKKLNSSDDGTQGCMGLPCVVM

Compound | HRAS/KRAS (ratio of KD value for HRAS to KD value for KRAS) [1] | NRAS/KRAS (ratio of KD value for NRAS to KD value for KRAS) [2]
CCC[C@H]1C(=O)N[C@@H]([C@@H](C)CC)C(=O)N(CCC)CC(=O)N(C)CC(=O)N(CCC)[C@@H](Cc2ccc(C(F)(F)F)cc2)C(=O)N(C)CC(=O)N[C@@H](CCc2ccc(C(F)(F)F)c(Cl)c2)C(=O)N2CCC[C@H]2C(=O)NC2(CCC2)C(=O)N(C)[C@@H](C2CCCC2)C(=O)N(C)[C@H](C(=O)N2CCOCC2)CC(=O)N1C [PP1947] ([NMeNva]I[NPrGly][Sar][NPrPhe(4-CF3)][Sar][hPhe(3-Cl-4-CF3)]P[Ac4c][NMeGly(cPent)][NMeD]-Morpholide; lactam N-11) | B (a compound having 3 or more and less than 10 is denoted as B) | B (a compound having 3 or more and less than 10 is denoted as B)
CCCN1C(=O)CN(CC)C(=O)CN(C)C(=O)[C@H]([C@@H](C)CC)NC(=O)[C@H](CC(C)C)N(C)C(=O)C[C@@H](C(=O)N2CCOCC2)N(C)C(=O)[C@H](C2CCCC2)N(C)C(=O)C2(CCC2)NC(=O)[C@@H]2CCCN2C(=O)[C@H](CCc2ccc(C(F)(F)F)c(Cl)c2)NC(=O)CN(C)C(=O)[C@@H]1Cc1ccc(C(F)(F)F)cc1 [PP1948] ([NMeL]I[Sar][NEtG][NPrPhe(4-CF3)][Sar][hPhe(3-Cl-4-CF3)]P[Ac4c][NMeGly(cPent)][NMeD]-Morpholide; lactam N-11) | C (A compound having a KD ratio of 0.1 or more and less than 3 is denoted as C) | C (A compound having a KD ratio of 0.1 or more and less than 3 is denoted as C)
CCC[C@H]1C(=O)N[C@@H]([C@@H](C)CC)C(=O)N(C)CC(=O)N(CCC)CC(=O)N(CCC)[C@@H](Cc2ccc(C(F)(F)F)cc2)C(=O)N(C)CC(=O)N[C@@H](CCc2ccc(C(F)(F)F)c(Cl)c2)C(=O)N2CCC[C@H]2C(=O)NC2(CCC2)C(=O)N(C)[C@@H](C2CCCC2)C(=O)N(C)[C@H](C(=O)N2CCOCC2)CC(=O)N1C [PP1949] ([NMeNva]I[Sar][NPrGly][NPrPhe(4-CF3)][Sar][hPhe(3-Cl-4-CF3)]P[Ac4c][NMeGly(cPent)][NMeD]-Morpholide; lactam N-11) | C (A compound having a KD ratio of 0.1 or more and less than 3 is denoted as C) | C (A compound having a KD ratio of 0.1 or more and less than 3 is denoted as C)
CCCN1C(=O)CN(C)C(=O)CN(C)C(=O)[C@H]([C@@H](C)CC)NC(=O)[C@H](CC(C)C)N(C)C(=O)C[C@@H](C(=O)N2CCOCC2)N(C)C(=O)[C@H](C2CCCC2)N(C)C(=O)C2(CCC2)NC(=O)[C@@H]2CCCN2C(=O)[C@H](CCc2ccc(C(F)(F)F)c(Cl)c2)NC(=O)CN(CC)C(=O)[C@@H]1Cc1ccc(C(F)(F)F)cc1 [PP1950] ([NMeL]I[Sar][Sar][NPrPhe(4-CF3)][NEtG][hPhe(3-Cl-4-CF3)]P[Ac4c][NMeGly(cPent)][NMeD]-Morpholide; lactam N-11) | C (A compound having a KD ratio of 0.1 or more and less than 3 is denoted as C) | B (a compound having 3 or more and less than 10 is denoted as B)
CCCN1C(=O)CN(C)C(=O)CN(C)C(=O)[C@H]([C@@H](C)CC)NC(=O)[C@H](CC(C)C)N(C)C(=O)C[C@@H](C(=O)N2CCOCC2)N(C)C(=O)[C@H](C2CCCC2)N(CC)C(=O)C2(CCC2)NC(=O)[C@@H]2CCCN2C(=O)[C@H](CCc2ccc(C(F)(F)F)c(Cl)c2)NC(=O)CN(C)C(=O)[C@@H]1Cc1ccc(C(F)(F)F)cc1 [PP1952] ([NMeL]I[Sar][Sar][NPrPhe(4-CF3)][Sar][hPhe(3-Cl-4-CF3)]P[Ac4c][X30][NMeD]-Morpholide; lactam N-11) | B (a compound having 3 or more and less than 10 is denoted as B) | B (a compound having 3 or more and less than 10 is denoted as B)
CCCN1C(=O)CN(C)C(=O)CN(C)C(=O)[C@H]([C@@H](C)CC)NC(=O)[C@H](CC(C)C)N(C)C(=O)C[C@@H](C(=O)N2CCOCC2)N(CC)C(=O)[C@H](C2CCCC2)N(C)C(=O)C2(CCC2)NC(=O)[C@@H]2CCCN2C(=O)[C@H](CCc2ccc(C(F)(F)F)c(Cl)c2)NC(=O)CN(C)C(=O)[C@@H]1Cc1ccc(C(F)(F)F)cc1 [PP1953] ([NMeL]I[Sar][Sar][NPrPhe(4-CF3)][Sar][hPhe(3-Cl-4-CF3)]P[Ac4c][NMeGly(cPent)][NEtAsp]-Morpholide; lactam N-11) | B (a compound having 3 or more and less than 10 is denoted as B) | B (a compound having 3 or more and less than 10 is denoted as B)
CCC[C@H]1C(=O)N[C@@H]([C@@H](C)CC)C(=O)N(C)CC(=O)N(C)CC(=O)N(CCC)[C@@H](Cc2ccc(C(F)(F)F)cc2)C(=O)N(C)CC(=O)N[C@@H](CCc2ccc(C(F)(F)F)c(Cl)c2)C(=O)N2CCC[C@H]2C(=O)NC2(CCC2)C(=O)N(C)[C@@H](C2CCCC2)C(=O)N(CCC)[C@H](C(=O)N2CCOCC2)CC(=O)N1C [PP1954] ([NMeNva]I[Sar][Sar][NPrPhe(4-CF3)][Sar][hPhe(3-Cl-4-CF3)]P[Ac4c][NMeGly(cPent)][NPrAsp]-Morpholide; lactam N-11) | B (a compound having 3 or more and less than 10 is denoted as B) | B (a compound having 3 or more and less than 10 is denoted as B)
CCC[C@H]1C(=O)N[C@@H]([C@@H](C)CC)C(=O)N(C)[C@@H](C)C(=O)N2CC[C@H]2C(=O)N(CCC)[C@@H](Cc2ccc(C(F)(F)F)cc2)C(=O)N(C)CC(=O)N[C@@H](CCc2ccc(C(F)(F)F)c(Cl)c2)C(=O)N2CCC[C@H]2C(=O)NC2(CCC2)C(=O)N(C)[C@@H](C2CCCC2)C(=O)N(CC)[C@H](C(=O)N2CCOCC2)CC(=O)N1C [PP1955] ([NMeNva]I[NMeA][Aze][NPrPhe(4-CF3)][Sar][hPhe(3-Cl-4-CF3)]P[Ac4c][NMeGly(cPent)][NEtAsp]-Morpholide; lactam N-11) | B (a compound having 3 or more and less than 10 is denoted as B) | C (A compound having a KD ratio of 0.1 or more and less than 3 is denoted as C)
CCCN1C(=O)CN(C)C(=O)CN(C)C(=O)[C@H]([C@@H](C)CC)NC(=O)[C@H](CC(C)C)N(C)C(=O)C[C@@H](C(=O)N(C)C)N(CC)C(=O)[C@H](C2CCCC2)N(C)C(=O)C2(CCC2)NC(=O)[C@@H]2CCCN2C(=O)[C@H](CCc2ccc(C(F)(F)F)c(Cl)c2)NC(=O)CN(C)C(=O)[C@@H]1Cc1ccc(C(F)(F)F)cc1 [PP1956] ([NMeL]I[Sar][Sar][NPrPhe(4-CF3)][Sar][hPhe(3-Cl-4-CF3)]P[Ac4c][NMeGly(cPent)][NEtAsp]-NMe2; lactam N-11) | B (a compound having 3 or more and less than 10 is denoted as B) | B (a compound having 3 or more and less than 10 is denoted as B)
CCCN1C(=O)[C@@H]2CCN2C(=O)[C@H](C)N(C)C(=O)[C@H]([C@@H](C)CC)NC(=O)[C@H](CC(C)C)N(C)C(=O)C[C@@H](C(=O)N(C)C)N(CC)C(=O)[C@H](C2CCCC2)N(C)C(=O)C2(CCC2)NC(=O)[C@@H]2CCCN2C(=O)[C@H](CCc2ccc(C(F)(F)F)c(Cl)c2)NC(=O)CN(C)C(=O)[C@@H]1Cc1ccc(C(F)(F)F)cc1 [PP1957] ([NMeL]I[NMeA][Aze][NPrPhe(4-CF3)][Sar][hPhe(3-Cl-4-CF3)]P[Ac4c][NMeGly(cPent)][NEtAsp]-NMe2; lactam N-11) | B (a compound having 3 or more and less than 10 is denoted as B) | C (A compound having a KD ratio of 0.1 or more and less than 3 is denoted as C)
CCCN1C(=O)CN(C)C(=O)CN(C)C(=O)[C@H]([C@@H](C)CC)NC(=O)[C@H](CC(C)C)N(C)C(=O)C[C@@H](C(=O)N2CCOCC2)N(C)C(=O)[C@H](C(CC)CC)N(C)C(=O)C2(CCC2)NC(=O)[C@@H]2CCCN2C(=O)[C@H](CCc2ccc(C(F)(F)F)c(Cl)c2)NC(=O)CN(C)C(=O)[C@@H]1Cc1ccc(C(F)(F)F)cc1 [PP1958] ([NMeL]I[Sar][Sar][NPrPhe(4-CF3)][Sar][hPhe(3-Cl-4-CF3)]P[Ac4c][NMeNva(3-Et)][NMeD]-Morpholide; lactam N-11) | B (a compound having 3 or more and less than 10 is denoted as B) | B (a compound having 3 or more and less than 10 is denoted as B)
CCC[C@H]1C(=O)N[C@@H]([C@@H](C)CC)C(=O)N(C)[C@@H](C)C(=O)N2CC[C@H]2C(=O)N(CCC)[C@@H](Cc2ccc(C(F)(F)F)cc2)C(=O)N(C)CC(=O)N[C@@H](CCc2ccc(C(F)(F)F)c(Cl)c2)C(=O)N2CCC[C@H]2C(=O)NC2(CCC2)C(=O)N(C)[C@@H](C(CC)CC)C(=O)N(C)[C@H](C(=O)N2CCOCC2)CC(=O)N1C [PP1959] ([NMeNva]I[NMeA][Aze][NPrPhe(4-CF3)][Sar][hPhe(3-Cl-4-CF3)]P[Ac4c][NMeNva(3-Et)][NMeD]-Morpholide; lactam N-11) | B (a compound having 3 or more and less than 10 is denoted as B) | C (A compound having a KD ratio of 0.1 or more and less than 3 is denoted as C)
CCCN1C(=O)CN(C)C(=O)CN(C)C(=O)[C@H]([C@@H](C)CC)NC(=O)[C@H](CC(C)C)N(C)C(=O)C[C@@H](C(=O)N(C)C)N(C)C(=O)[C@H](C(CC)CC)N(C)C(=O)C2(CCC2)NC(=O)[C@@H]2CCCN2C(=O)[C@H](CCc2ccc(C(F)(F)F)c(Cl)c2)NC(=O)CN(C)C(=O)[C@@H]1Cc1ccc(C(F)(F)F)cc1 [PP1960] ([NMeL]I[Sar][Sar][NPrPhe(4-CF3)][Sar][hPhe(3-Cl-4-CF3)]P[Ac4c][NMeNva(3-Et)][NMeD]-NMe2; lactam N-11) | C (A compound having a KD ratio of 0.1 or more and less than 3 is denoted as C) | B (a compound having 3 or more and less than 10 is denoted as B)
